Laboratory results reported in ChEMBL document CHEMBL4414655, “Position Effect of Fatty Acid Modification on the Cytotoxicity and Antimetastasis Potential of the Cytotoxic Peptide Lycosin-I” (J Med Chem, 2019).
Activity calls are given as the source filed them. The calls are words filed in the database; no cut-off is given here. Residues, ends and D or L forms follow the SMILES beside them. *: point of attachment. Lauroyl = CCCCCCCCCCCC(=O)*

Columns and labels:
A549 [1] = test: Inhibition of spheroids growth in human A549 cells 3D tumor spheroids at 5 uM treated on day 0 and measured on day 5 by CCK8 assay; type: functional, cell-based
A549 [2] = test: Anti-migration activity in human A549 cells incubated for 12 hrs by crystal violet staining based transwell migration assay; type: functional, cell-based
A549 [3] = test: Induction of cell membrane disruption in human A549 cells assessed as LDH release at 3.1 uM incubated for 30 mins by fluorescence based assay relative to control
B16-F10 [4] = test: Anti-metastasis activity in mouse B16/F10 cells implanted in BALB/C mouse assessed as inhibition of lung metastatic nodules at 8 mg/kg, ip dosed every other day for 10 days and measured every 2 days by H and E staining based assay; type: functional, organism-based
A549 [5] = test: Cytotoxicity in human A549 cells assessed as reduction in cell viability at 1.56 to 12.5 uM at 37 degC incubated for 24 hrs by CCK8 assay; type: functional, cell-based
A549 [6] = test: Induction of cell membrane disruption in human A549 cells assessed as LDH release at 3.25 uM incubated for 30 mins by fluorescence based assay relative to control
B16-F10 [7] = test: Anti-metastasis activity in mouse B16/F10 cells implanted in BALB/C mouse assessed as reduction in lung metastatic nodules at 8 mg/kg, ip dosed every other day for 10 days and measured every 2 days by H and E staining based assay; type: functional, organism-based
A549 [8] = test: Induction of apoptosis in human A549 cells assessed as necrotic cells level at 2 uM incubated for 24 hrs by Annexin-V-FITC/PI staining based analysis (reference value: 2.27%); type: functional
A549 [9] = test: Induction of apoptosis in human A549 cells assessed as early apoptotic cells level at 2 uM incubated for 24 hrs by Annexin-V-FITC/PI staining based analysis (reference value: 2.27%); type: functional
[10] = Toxicity in mouse B16/F10 cells implanted BALB/C mouse assessed as effect on body weight at 10 mg/kg, ip dosed every other day for 10 days and measured every 5 days; type: organism-based; conditions: in vivo
A549 [11] = test: Induction of cell membrane disruption in human A549 cells assessed as shrunken morphology with membrane lysis at 4 uM incubated for 24 hrs by scanning electron microscopy; type: cell-based
L02 = test: Cytotoxicity in human L02 cells assessed as reduction in cell viability incubated for 24 hrs by CCK8 assay; type: cell-based; conditions: L02, 24 h
A549 [12] = test: Induction of apoptosis in human A549 cells assessed as late apoptotic cells level at 2 uM incubated for 24 hrs by Annexin-V-FITC/PI staining based analysis (reference value: 2.27%); type: functional
A549 [13] = test: Cytotoxicity in human A549 cells assessed as reduction in cell viability by trypan blue staining method; type: functional, cell-based
SW-620 = test: Cytotoxicity in human SW620 cells assessed as reduction in cell viability incubated for 24 hrs by CCK8 assay; type: functional, cell-based; conditions: SW-620, 24 h
B16-F10 [14] = test: Antitumor activity in mouse B16/F10 cells implanted in BALB/C mouse assessed as inhibition of tumor growth at 10 mg/kg, ip dosed every other day for 10 days and measured every 2 days; type: functional, organism-based
A549 [15] = test: Anti-migration activity in human A549 cells 3D tumor spheroids assessed as reduction in cell migration at 2.5 to 10 uM incubated for 48 hrs by gelatin based 3D spheroid based metastasis assay; type: functional
MCF7 = test: Cytotoxicity in human MCF7 cells assessed as reduction in cell viability incubated for 24 hrs by CCK8 assay; type: functional, cell-based; conditions: MCF7, 24 h
A549 [16] = test: Cytotoxicity in human A549 cells assessed as reduction in cell viability at 1 uM incubated for 24 hrs by CCK8 assay; type: functional, cell-based
A549 [17] = test: Induction of cell membrane disruption in human A549 cells at 4 uM incubated for 24 hrs by scanning electron microscopy; type: cell-based
A549 [18] = test: Induction of apoptosis in human A549 cells assessed as induction of caspase-3 activation at 2 uM incubated for 24 hrs using Ac-DEVD-pNA substrate; type: functional, cell-based
B16-F10 [19] = test: Cytotoxicity in mouse B16/F10 cells assessed as reduction in cell viability incubated for 24 hrs by CCK8 assay; type: functional, cell-based; conditions: B16-F10, 24 h
Homo sapiens = species on record: Homo sapiens; test: Induction of cell membrane disruption in human erythrocytes cells assessed as induction of hemolysis at 0.098 to 50 uM incubated for 1 hr by fluorescence based assay relative to control; type: cell membranes
A549 [20] = test: Anti-invasion activity in human A549 cells at 0.5 to 1 uM incubated for 12 hrs by crystal violet staining based Matrigel coated transwell invasion assay; type: functional, cell-based
U-87 MG = test: Cytotoxicity in human U87 cells assessed as reduction in cell viability incubated for 24 hrs by CCK8 assay; type: functional, cell-based, U-87MG ATCC
A549 [21] = test: Inhibition of spheroids growth in human A549 cells 3D tumor spheroids assessed as induction of physical shrinking and peripheral collapse at 10 uM treated on day 0 and measured on day 5; type: functional, cell-based
A549 [22] = test: Cytotoxicity in human A549 cells assessed as reduction in cell viability incubated for 24 hrs by CCK8 assay; type: functional, cell-based; conditions: A549, 24 h
A549 [23] = test: Cytotoxicity in human A549 cells assessed as reduction in cell viability at 1.56 to 12.5 uM at 4 degC incubated for 24 hrs by CCK8 assay; type: functional, cell-based
PC-3 = test: Cytotoxicity in human PC3 cells assessed as reduction in cell viability incubated for 24 hrs by CCK8 assay; type: functional, cell-based; conditions: PC-3, 24 h
A549 [24] = test: Cytotoxicity in human A549 cells assessed as reduction in cell viability at 0.39 to 25 uM pre-incubated in presence of 10% FBS for 48 hrs and measured after 24 hrs by CCK8 assay; type: functional, cell-based
A549 [25] = test: Potency index, ratio of IC50 for lycosin-I to IC50 for test compound for cytotoxicity in human A549 cells assessed as reduction in cell viability at 0.78 to 50 uM incubated for 24 hrs by CCK8 assay; type: functional
A549 [26] = test: Cytotoxicity in human A549 cells 3D tumor spheroids assessed as reduction in cell viability at 5 to 10 uM treated on day 0 and measured on day 5 by CCK8 assay; type: functional, cell-based
[27] = Toxicity in mouse B16/F10 cells implanted BALB/C mouse assessed as effect on body weight at 8 mg/kg, ip dosed every other day for 10 days and measured every 5 days; type: organism-based; conditions: in vivo
HeLa = test: Cytotoxicity in human HeLa cells assessed as reduction in cell viability incubated for 24 hrs by CCK8 assay; type: functional, cell-based
HEK-293T = test: Cytotoxicity in human HEK293T cells assessed as reduction in cell viability incubated for 24 hrs by CCK8 assay; type: cell-based; conditions: Homo sapiens, HEK-293T
A549 [28] = test: Inhibition of colony formation n human A549 cells incubated for 15 days by crystal violet staining based assay; type: functional, cell-based
A549 [29] = test: Induction of cell membrane disruption in human A549 cells at 4 uM incubated for 1 hr by AO/EB staining based fluorescence microscopy
[30] = Stability in mouse serum at 100 uM incubated for 24 hrs at 37 degC by MALDI-TOF MS analysis; type: ADME, cell-free
A549 [31] = test: Anti-migration activity in human A549 cells 3D tumor spheroids assessed as reduction in cell migration at 20 uM incubated for 48 hrs by gelatin based 3D spheroid based metastasis assay; type: functional
A549 [32] = test: Inhibition of spheroids growth in human A549 cells 3D tumor spheroids at 10 to 20 uM treated on day 0 and measured on day 5 by CCK8 assay; type: functional, cell-based
A549 [33] = test: Inhibition of colony formation n human A549 cells up to 10 uM incubated for 15 days by crystal violet staining based assay; type: functional, cell-based
A549 [34] = test: Induction of cell membrane disruption in human A549 cells assessed as LDH release at 25 uM incubated for 30 mins by fluorescence based assay relative to control
A549 [35] = test: Anti-migration activity in human A549 cells at 0.5 to 1 uM incubated for 12 hrs by crystal violet staining based transwell migration assay; type: functional, cell-based

| Stability [30] | Compound | inhibition (B16-F10 [4]) | Activity (A549 [6]) [%] | Activity (A549 [8]) [%] | Activity (A549 [9]) [%] | Activity [10] | IC50 (L02) [µM] | Activity (A549 [12]) [%] | IC50 (SW-620) [µM] | TGI (B16-F10 [14]) | IC50 (MCF7) [µM] | Activity (A549 [17]) | Activity (A549 [20]) | IC50 (U-87 MG) [µM] | IC50 (A549 [22]) [µM] | IC50 (PC-3) [µM] | Activity (A549 [24]) | IC50 (HeLa) [µM] | IC50 (HEK-293T) [µM] | Activity (A549 [29]) | other results |
| --- | --- | --- | --- | --- | --- | --- | --- | --- | --- | --- | --- | --- | --- | --- | --- | --- | --- | --- | --- | --- | --- |
| Stable | CCCCCCCCCCCC(=O)N[C@@H](CCCCN)C(=O)NCC(=O)N[C@@H](Cc1c[nH]c2ccccc12)C(=O)N[C@@H](Cc1ccccc1)C(=O)N[C@@H](CCCCN)C(=O)N[C@@H](C)C(=O)N[C@@H](CCSC)C(=O)N[C@@H](CCCCN)C(=O)N[C@@H](CO)C(=O)N[C@H](C(=O)N[C@@H](C)C(=O)N[C@@H](CCCCN)C(=O)N[C@@H](Cc1ccccc1)C(=O)N[C@H](C(=O)N[C@@H](C)C(=O)N[C@@H](CCCCN)C(=O)N[C@@H](CCC(=O)O)C(=O)N[C@@H](CCCCN)C(=O)N[C@@H](CC(C)C)C(=O)N[C@@H](CCCCN)C(=O)N[C@@H](CCC(=O)O)C(=O)N[C@@H](Cc1cnc[nH]1)C(=O)N[C@@H](CC(C)C)C(=O)O)[C@@H](C)CC)[C@@H](C)CC (Lauroyl-KGWFKAMKSIAKFIAKEKLKEHL-OH) | Active | 59.4 | 31.84 | 0.91 | Non-Toxic | 3.9 | 10.88 | 2 | Active | 1.7 | Active | Dose-dependent effect | 1.9 | 2.2 to 2.6 | 2.2 | Active | 2.8 | 2.2 | Active | growth inhibition (GI) (A549 [1]): Active; Activity (A549 [2]): Dose-dependent effect; Activity (A549 [3]): 55%; Activity (A549 [5]): Active; inhibition (B16-F10 [7]): Active; Activity (A549 [11]): Active; Activity (A549 [13]): Active; Activity (A549 [15]): Active; Activity (A549 [16]): inactive; Activity (A549 [18]): Active; IC50 (B16-F10 [19]): 2 µM; Activity (Homo sapiens): Active; growth inhibition (GI) (A549 [21]): Active; Activity (A549 [23]): inactive; Ratio IC50 (A549 [25]): 4 - 15; growth inhibition (GI) (A549 [26]): Active; Activity [27]: Non-Toxic; inhibition (A549 [28]): Dose-dependent effect |
| Unstable | H-KGWFKAMKSIAKFIAKEKLKEHL-OH | inactive | 5.1 | 1.97 | 0.48 | Non-Toxic | 42.1 | 3.37 | 13.7 | inactive | 20.1 | inactive | inactive | 19.9 | 22.9 | 11 | inactive | 26.3 | 27.9 | inactive | Activity (A549 [31]): Active; growth inhibition (GI) (A549 [32]): inactive; inhibition (A549 [33]): inactive; Activity (A549 [34]): 37%; Activity (A549 [35]): inactive |
